The supplement of paper PMC10307832

Key:
Experiment in all cases: relative viability (nuclei count vs DMSO), 5 days (fraction); higher = more cells survive
[1] = compound: CC(=O)c1c(C)c2cnc(Nc3ccc(N4CCNCC4)cn3)nc2n(C2CCCC2)c1=O [Palbociclib] + CC(=O)Nc1cccc(-n2c(=O)n(C3CC3)c(=O)c3c(Nc4ccc(I)cc4F)n(C)c(=O)c(C)c32)c1 [Trametinib] (partner 0.02 µM)
Method in brief: (§1)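 Medians of duplicate plates are given as relative viability. That measure is the nuclei count in treated wells divided by the count in vehicle wells. Counts were taken on 4× images of lung cancer cell lines in 1536-well plates, 5 days after pin-tool dosing the day after seeding with one drug alone or a fixed anchor-drug dose plus five library-drug doses (not always all listed) in √10 steps.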

[2] = compound: CC(=O)c1c(C)c2cnc(Nc3ccc(N4CCNCC4)cn3)nc2n(C2CCCC2)c1=O [Palbociclib] + Cc1cc(Nc2cc(N3CCN(C)CC3)nc(Sc3ccc(NC(=O)C4CC4)cc3)n2)n[nH]1 [Tozasertib] (partner 0.1 µM)
Method in brief: as §1

[3] = compound: CC(=O)c1c(C)c2cnc(Nc3ccc(N4CCNCC4)cn3)nc2n(C2CCCC2)c1=O [Palbociclib] + CC1(C)CCC(c2ccc(Cl)cc2)=C(CN2CCN(c3ccc(C(=O)NS(=O)(=O)c4ccc(N[C@H](CCN5CCOCC5)CSc5ccccc5)c(S(=O)(=O)C(F)(F)F)c4)cc3)CC2)C1 [Navitoclax] (partner 0.5 µM)
Method in brief: as §1

[4] = compound: CC(=O)c1c(C)c2cnc(Nc3ccc(N4CCNCC4)cn3)nc2n(C2CCCC2)c1=O [Palbociclib] + Nc1ncn([C@H]2C[C@H](O)[C@@H](CO)O2)c(=O)n1 [Decitabine] (partner 2 µM)
Method in brief: as §1

| Cell Line | relative viability ([1]; first compound 0.01 µM) | relative viability ([1]; first compound 0.03162 µM) | relative viability ([1]; first compound 0.1 µM) | relative viability ([1]; first compound 0.3162 µM) | relative viability ([1]; first compound 1 µM) | relative viability ([2]; first compound 0.01 µM) | relative viability ([2]; first compound 0.1 µM) | relative viability ([2]; first compound 0.3162 µM) | relative viability ([2]; first compound 1 µM) | relative viability ([3]; first compound 0.01 µM) | relative viability ([3]; first compound 0.03162 µM) | relative viability ([3]; first compound 0.1 µM) | relative viability ([3]; first compound 0.3162 µM) | relative viability ([3]; first compound 1 µM) | relative viability ([4]; first compound 0.01 µM) | relative viability ([4]; first compound 0.03162 µM) | relative viability ([4]; first compound 0.1 µM) | relative viability ([4]; first compound 0.3162 µM) | relative viability ([4]; first compound 1 µM) | relative viability ([2]; first compound 0.03162 µM) |
| --- | --- | --- | --- | --- | --- | --- | --- | --- | --- | --- | --- | --- | --- | --- | --- | --- | --- | --- | --- | --- |
| NCI-H1793 | 0.438 | 0.431 | 0.44 | 0.322 | 0.281 | 0.358 | 0.318 | 0.339 | 0.276 | 0.382 | 0.38 | 0.506 | 0.394 | 0.369 | 0.559 | 0.613 | 0.611 | 0.46 | 0.342 |  |
| NCI-H1915 | 0.29 |  | 0.297 | 0.289 | 0.245 | 0.435 | 0.48 | 0.471 | 0.452 | 0.764 | 0.733 | 0.771 | 0.782 | 0.763 | 0.277 |  | 0.254 | 0.254 | 0.26 | 0.36 |
| NCI-H1944 | 0.399 | 0.389 | 0.396 | 0.37 | 0.342 | 0.254 | 0.293 | 0.245 | 0.229 | 1.03 | 1.06 | 0.878 | 1.03 | 0.987 | 0.45 | 0.426 | 0.447 | 0.438 | 0.431 | 0.242 |
| NCI-H1975 | 0.402 | 0.372 | 0.309 | 0.353 | 0.236 | 0.733 | 0.577 | 0.694 | 0.592 | 1.2 | 1.02 | 1.08 | 0.918 | 0.877 | 0.413 | 0.429 | 0.412 | 0.399 | 0.365 | 0.664 |
| NCI-H1993 | 0.564 | 0.612 | 0.418 | 0.332 | 0.514 | 0.612 | 0.575 | 0.507 | 0.509 | 0.84 | 0.875 | 0.752 | 0.771 | 0.706 | 0.61 | 0.588 | 0.606 | 0.507 | 0.555 | 0.572 |
| NCI-H2009 | 0.307 | 0.296 | 0.194 | 0.223 | 0.141 | 0.739 | 0.625 | 0.479 | 0.346 | 1.15 | 1.17 | 0.908 | 0.896 | 0.404 | 0.375 | 0.347 | 0.358 | 0.365 | 0.274 | 0.729 |
| NCI-H2023 | 0.655 | 0.408 | 0.477 | 0.464 | 0.326 | 0.377 | 0.314 | 0.297 | 0.292 | 1 | 0.897 | 0.897 | 0.77 | 0.48 | 0.225 | 0.189 | 0.254 | 0.272 | 0.251 | 0.31 |
| NCI-H2085 | 0.529 | 0.516 | 0.588 | 0.482 | 0.34 | 0.84 | 0.689 | 0.635 | 0.523 | 1.1 | 1.04 | 0.897 | 0.93 | 0.776 | 0.555 | 0.55 | 0.65 | 0.534 | 0.538 | 0.701 |
| NCI-H2087 | 0.236 | 0.191 | 0.161 | 0.15 | 0.187 | 0.212 | 0.189 | 0.189 | 0.156 | 1.04 | 0.843 | 0.802 | 0.685 | 0.495 | 0.234 | 0.272 | 0.2 | 0.228 | 0.171 |  |
| NCI-H2126 | 0.575 | 0.528 | 0.518 | 0.509 | 0.431 | 0.837 | 0.531 | 0.542 | 0.363 | 0.861 | 0.848 | 0.743 | 0.745 | 0.561 | 0.637 | 0.568 | 0.492 | 0.539 | 0.463 | 0.746 |
| NCI-H2170 | 0.968 | 0.838 | 0.889 | 0.882 | 0.721 | 0.697 | 0.737 | 0.77 | 0.655 | 0.624 | 0.552 | 0.74 | 0.578 | 0.549 | 0.503 | 0.478 | 0.446 | 0.477 | 0.45 | 0.75 |
| NCI-H2347 | 0.295 | 0.292 | 0.244 | 0.249 | 0.272 | 0.639 | 0.542 | 0.565 | 0.361 | 0.835 | 0.751 | 0.646 | 0.6 | 0.533 | 0.597 | 0.656 | 0.599 | 0.585 | 0.504 |  |
| NCI-H2405 | 0.614 | 0.509 | 0.531 | 0.555 | 0.447 | 0.75 | 0.663 | 0.574 | 0.509 | 0.866 |  | 0.574 | 0.729 | 0.722 | 0.781 | 0.808 | 0.691 | 0.64 | 0.605 | 0.651 |
| NCI-H3122 | 0.212 | 0.207 | 0.232 | 0.192 | 0.158 | 0.344 | 0.231 | 0.234 | 0.143 | 0.941 | 0.982 | 0.921 | 0.757 | 0.618 | 0.394 | 0.423 | 0.347 | 0.33 | 0.277 | 0.212 |
| PC-3 [JPC-3] | 0.657 | 0.634 | 0.534 | 0.703 | 0.597 | 0.918 | 0.823 | 0.774 | 0.596 | 0.769 | 0.778 | 0.66 | 0.721 | 0.635 | 0.804 | 0.713 | 0.76 | 0.782 | 0.607 | 0.778 |
| PC-14 | 0.742 | 0.528 | 0.512 | 0.466 | 0.273 | 0.589 | 0.523 | 0.55 | 0.4 | 1.14 | 0.932 | 0.908 | 0.877 | 0.605 | 0.329 | 0.217 | 0.224 | 0.27 | 0.205 |  |
